Source: patent US20050014680A1, “Methods and compositions for enhancing neuron growth and survival” (priority 2003, published 2005)

How the values were obtained:
[1] = tested on: dissociated E10.5 trigeminal neurons; experiment: Survival assay, Tunel staining of low-density dissociated E10.5 trigeminal neurons; type: cell-based, mouse; conditions: serum-free medium, 24 hr; 150 nM Kn252a; 100 ng/ml FK506, 1 μg/ml CsA
Excerpt: Embryos were obtained from timed pregnancies with the noon of the plug date defined as […]. For whole-mount studies, embryos were processed and stained with anti-Neurofilament antibody (clone 2H3, DSHB) and processed for DAB or fluorescent staining. Sections were stained with anti-NF-M antibody, anti-TAG-1 antibody, anti-Lim1/2, anti-Pax7, anti-Nkx2.2, anti HNF-3b, anti-islet-1 (all from DSHB), Tuj-1 (ABR) and anti-TrkC (Chemicon). Secondary antibodies used were HRP conjugated goat anti-mouse antibody (Jackson Immunoresearch), Alexa-594 and Alexa-488 conjugated goat anti-mouse antibody (Molecular Probes) as well as anti-mouse and anti-rabbit ABC kits (Vector). Tunel assays were performed according to the manufacturer's recommendations (Roche).
Trigeminal ganglia were incubated for 5 minutes at 37° C. with 10 mg/ml trypsin (Sigma)+DNAse (Sigma) in calcium- and magnesium-free (CMF) HBSS. After removal of the trypsin solution, the ganglia were washed 3 times with Hams F12 medium containing 10% heat-inactivated horse serum washed 3 times with CMF-HBSS and were gently triturated in 1 ml CMF-HBSS+DNAse with a fire-polished, siliconised Pasteur pipettes to give a single cell suspension. […]

[2] = tested on: NFAT-dependent transcription; experiment: NFAT-luciferase reporter assay in cortical neurons; type: cell-based, mouse and rat; conditions: E15.5 cultured cortical neurons, 100 ng/ml, lysed 18 hrs after stimulation
Description: (§1) The reporter plasmid NFAT-Luciferase and the EGFP-NFATc4 plasmid have been described elsewhere (Graef et al., 1999). The TrkA constructs have been previously described (Ming et al., 1999). For luciferase assays the cells were treated 16 hrs after transfection with 100 ng/ml recombinant BDNF (Gibco) or 100 ng/ml recombinant NGF. For studies with FK506/CsA the cells were preincubated for 10 min with the inhibitors before stimulation and the inhibitors were present during the stimulation. Cells were lysed for luciferase assays 18 hrs after stimulation and luciferase assays performed according to standard protocols. For microscopy, neurons were fixed in 4% formaldehyde/PBS. Co-transfected m yc-epitope tagged Trk-A was visualized by staining with anti-myc antibody (clone 4E10, Pharmingen), followed by Alexa-594 conjugated goat anti-mouse antibody (Molecular Probes).

NFATc4 = experiment: Cytoplasmic-to-nuclear translocation of EGFP-NFATc4 in cortical neurons; type: cell-based, mouse and rat
Description: as §1

[3] = tested on: trigeminal neuron growth cones; experiment: Growth cone morphology and collapse, trigeminal explant cubes stained with phalloidin; type: cell-based, mouse; conditions: c2/c3/c4 triple mutant ganglia or wild-type ganglia cultured with CsA and FK506, 30 min
Description: E10.5 trigeminal explants were cultured in either collagen or matrigel (Becton-Dickinson) gels in the presence of NT-3 (Gibco) and NGF (Gibco) as previously described (O'Connor and Tessier-Lavigne, 1999). The explants were then fixed in 4% PFA/PBS and axons were visualized by wholemount immunostaining with the anti-NF-M antibody (O'Connor and Tessier-Lavigne, 1999). For cultures on laminin, eight-well chamber tissue culture slides were coated with poly-L-lysine followed by laminin. Trigeminal ganglia were either dissociated or cut into small cubes and cultured in medium supplemented with NT-3 and NGF. For assessing growth cone morphology cells were fixed with 25% sucrose in 4% PFA/PBS and stained with either Alexa 594-phalloidin (Molecular Probes) alone or plus anti-III β-tubulin antibody (Tuj-1, Covance).

## COC(=O)[C@@]1(O)C[C@H]2O[C@]1(C)n1c3ccccc3c3c4c(c5c6ccccc6n2c5c31)C(=O)NC4 [Kn252a]
[1]
  cell death (Tunel-positive cells): even greater degree of cell death

## NGF: recombinant NGF, nerve growth factor, a neurotrophin
[2]
  activation of NFAT-dependent transcription: did not activate transcription from this reporter unless TrkA was introduced
NFATc4; E15.5 cortical neurons lacking TrkA (data not shown)
  nuclear translocation of EGFP-NFATc4, no TrkA transfected: did not induce translocation
NFATc4; cortical neurons co-transfected with EGFP-NFATc4 and TrkA, 100 ng/ml NGF
  nuclear translocation of EGFP-NFATc4, TrkA co-transfected: led to rapid translocation of EGFP-NFATc4 into the nucleus

B1: BDNF: recombinant BDNF (Gibco), a neurotrophin (protein, UniProt P23560 19-247, looked up)
Neurotrophic factor BDNF …: APMKEANIRGQGGLAYPGVRTHGTLESVNGPKAGSRGLTSLADTFEHVIEELLDEDQKVRPNEENNKDADLYTSRVMLSSQVPLEPPLLFLLEEYKNYLDAANMSMRVRRHSDPARRGELSVCDSISEWVTAADKKTAVDMSGGTVTVLEKVPVSKGQLKQYFYETKCNPMGYTKEGCRGIDKRHWNSQCRTTQSYVRALTMDSKKRIGWRFIRIDTSCVCTLTIKRGR
[2]
  activation of NFAT-dependent transcription: powerful activator of NFAT-dependent transcription
NFATc4; E15.5 cortical neurons, 100 ng/ml BDNF
  time to nuclear translocation of EGFP-tagged NFATc4: ≤ 30 min

B2: Sema3A: semaphorin 3-A, induces growth cone collapse (protein, UniProt Q14563 21-771, looked up)
Semaphorin-3A: NYQNGKNNVPRLKLSYKEMLESNNVITFNGLANSSSYHTFLLDEERSRLYVGAKDHIFSFDLVNIKDFQKIVWPVSYTRRDECKWAGKDILKECANFIKVLKAYNQTHLYACGTGAFHPICTYIEIGHHPEDNIFKLENSHFENGRGKSPYDPKLLTASLLIDGELYSGTAADFMGRDFAIFRTLGHHHPIRTEQHDSRWLNDPKFISAHLISESDNPEDDKVYFFFRENAIDGEHSGKATHARIGQICKNDFGGHRSLVNKWTTFLKARLICSVPGPNGIDTHFDELQDVFLMNFKDPKNPVVYGVFTTSSNIFKGSAVCMYSMSDVRRVFLGPYAHRDGPNYQWVPYQGRVPYPRPGTCPSKTFGGFDSTKDLPDDVITFARSHPAMYNPVFPMNNRPIVIKTDVNYQFTQIVVDRVDAEDGQYDVMFIGTDVGTVLKVVSIPKETWYDLEEVLLEEMTVFREPTAISAMELSTKQQQLYIGSTAGVAQLPLHRCDIYGKACAECCLARDPYCAWDGSACSRYFPTAKRRTRRQDIRNGDPLTHCSDLHHDNHHGHSPEERIIYGVENSSTFLECSPKSQRALVYWQFQRRNEERKEEIRVDDHIIRTDQGLLLRSLQQKDSGNYLCHAVEHGFIQTLLKVTLEVIDTEHLEELLHKDDDGDGSKTKEMSNSMTPSQKVWYRDFMQLINHPNLNTMDEFCEQVWKRDRKQRRQRPGHTPGNSNKWKHLQENKKGRNRRTHEFERAPRSV
[3]
  collapse of growth cones on matrigel: induced efficient collapse of growth cones
